In ChEMBL document CHEMBL1201862, “PubChem BioAssay data set” (2004):
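Step 1: Grow cells in 96-well plates. Step 2: Expose to compound for 48 hours at 5 concentrations. Step 3: Interpolate endpoints linearly; if unreached, use highest concentration. GI50: concentration for 50% inhibition of growth.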 Activity calls are given as the source filed them. Rule as the data show it: active = GI50 up to about 1.1 µM and inactive = higher.

Columns and labels:
Experiment in all cases: NCI-60 cell line screen, 48 h
COLO 205 = tested on: COLO 205
MOLT-4 = tested on: MOLT-4
CCRF-CEM = tested on: CCRF-CEM
KM12 = tested on: KM12
K562 = tested on: K562
A498 = tested on: A498
UO-31 = tested on: UO-31
TK-10 = tested on: TK-10
SW-620 = tested on: SW-620
SK-MEL-28 = tested on: SK-MEL-28
EKVX = tested on: EKVX
CAKI-1 = tested on: CAKI-1
A549 = tested on: A549
Hs-578T = tested on: Hs-578T
T47D = tested on: T47D
SNB-19 = tested on: SNB-19
NCI-H226 = tested on: NCI-H226
Malme-3M = tested on: Malme-3M
SN12C = tested on: SN12C
SF-539 = tested on: SF-539
HOP-62 = tested on: HOP-62
NCI-H522 = tested on: NCI-H522
SK-MEL-5 = tested on: SK-MEL-5
M14 = tested on: M14
HOP-92 = tested on: HOP-92
HT-29 = tested on: HT-29
U-251 = tested on: U-251
IGROV-1 = tested on: IGROV-1
OVCAR-3 = tested on: OVCAR-3
BT-549 = tested on: BT-549
NCI/ADR-RES = tested on: NCI/ADR-RES
SK-MEL-2 = tested on: SK-MEL-2
OVCAR-8 = tested on: OVCAR-8
UACC-62 = tested on: UACC-62
786-0 = tested on: 786-0
UACC-257 = tested on: UACC-257
HL-60 = tested on: HL-60
LOX IMVI = tested on: LOX IMVI
SF-295 = tested on: SF-295
HCT-116 = tested on: HCT-116
SF-268 = tested on: SF-268
DU-145 = tested on: DU-145
OVCAR-5 = tested on: OVCAR-5
ACHN = tested on: ACHN
MDA-N = tested on: MDA-N
SK-OV-3 = tested on: SK-OV-3
MDA-MB-435 = tested on: MDA-MB-435
NCI-H23 = tested on: NCI-H23
HCT-15 = tested on: HCT-15
MDA-MB-231 = tested on: MDA-MB-231
SR = tested on: SR
SNB-75 = tested on: SNB-75
NCI-H460 = tested on: NCI-H460
RPMI-8226 = tested on: RPMI-8226
PC-3 = tested on: PC-3
RXF 393 = tested on: RXF 393
OVCAR-4 = tested on: OVCAR-4
HCC 2998 = tested on: HCC 2998
MCF7 = tested on: MCF7

CC1=NN2C(=N)/C(=C/c3ccco3)C(=O)N=C2S1
GI50 (COLO 205): > 100 µM (inactive)
GI50 (MOLT-4): > 100 µM (inactive)
GI50 (CCRF-CEM): > 100 µM (inactive)
GI50 (KM12): > 100 µM (inactive)
GI50 (K562): > 100 µM (inactive)
GI50 (A498): > 100 µM (inactive)
GI50 (UO-31): > 100 µM (inactive)
GI50 (TK-10): > 100 µM (inactive)
GI50 (SW-620): > 100 µM (inactive)
GI50 (SK-MEL-28): > 100 µM (inactive)
GI50 (EKVX): > 100 µM (inactive)
GI50 (CAKI-1): > 100 µM (inactive)
GI50 (A549): > 100 µM (inactive)
GI50 (Hs-578T): > 100 µM (inactive)
GI50 (T47D): > 100 µM (inactive)
GI50 (SNB-19): > 100 µM (inactive)
GI50 (NCI-H226): > 100 µM (inactive)
GI50 (Malme-3M): > 100 µM (inactive)
GI50 (SN12C): > 100 µM (inactive)
GI50 (SF-539): > 100 µM (inactive)
GI50 (HOP-62): > 100 µM (inactive)
GI50 (NCI-H522): 1.15 µM (inactive)
GI50 (SK-MEL-5): > 100 µM (inactive)
GI50 (M14): > 100 µM (inactive)
GI50 (HOP-92): 65.5 µM (inactive)
GI50 (HT-29): > 100 µM (inactive)
GI50 (U-251): > 100 µM (inactive)
GI50 (IGROV-1): > 100 µM (inactive)
GI50 (OVCAR-3): > 100 µM (inactive)
GI50 (BT-549): > 100 µM (inactive)
GI50 (NCI/ADR-RES): > 100 µM (inactive)
GI50 (SK-MEL-2): > 100 µM (inactive)
GI50 (OVCAR-8): > 100 µM (inactive)
GI50 (UACC-62): > 100 µM (inactive)
GI50 (786-0): > 100 µM (inactive)
GI50 (UACC-257): > 100 µM (inactive)
GI50 (HL-60): > 100 µM (inactive)
GI50 (LOX IMVI): > 100 µM (inactive)
GI50 (SF-295): > 100 µM (inactive)
GI50 (HCT-116): > 100 µM (inactive)
GI50 (SF-268): > 100 µM (inactive)
GI50 (DU-145): > 100 µM (inactive)
GI50 (OVCAR-5): > 100 µM (inactive)
GI50 (ACHN): > 100 µM (inactive)
GI50 (MDA-N): > 100 µM (inactive)
GI50 (SK-OV-3): > 100 µM (inactive)
GI50 (MDA-MB-435): > 100 µM (inactive)
GI50 (NCI-H23): > 100 µM (inactive)
GI50 (HCT-15): > 100 µM
GI50 (MDA-MB-231): > 100 µM (inactive)
GI50 (SR): 50.4 µM (inactive)
GI50 (SNB-75): > 100 µM (inactive)
GI50 (NCI-H460): > 100 µM (inactive)
GI50 (RPMI-8226): > 100 µM (inactive)
GI50 (PC-3): > 100 µM (inactive)
GI50 (RXF 393): > 100 µM (inactive)
GI50 (OVCAR-4): > 100 µM (inactive)
GI50 (HCC 2998): > 100 µM (inactive)
GI50 (MCF7): > 100 µM (inactive)

O=C(O)CCS/C(=C\C(SCCC(=O)O)c1ccc(Cl)cc1)c1ccc(Cl)cc1 (stereo not drawn)
GI50 (COLO 205): 21.4 µM (inactive)
GI50 (MOLT-4): 37.2 µM (inactive)
GI50 (CCRF-CEM): 30.1 µM (inactive)
GI50 (KM12): 25.6 µM (inactive)
GI50 (K562): 35.1 µM (inactive)
GI50 (A498): 19.7 µM (inactive)
GI50 (UO-31): 78 µM (inactive)
GI50 (TK-10): 80.7 µM (inactive)
GI50 (SW-620): 28.1 µM (inactive)
GI50 (SK-MEL-28): 45.1 µM (inactive)
GI50 (EKVX): 62.5 µM (inactive)
GI50 (CAKI-1): 37.2 µM (inactive)
GI50 (A549): 57.1 µM (inactive)
GI50 (Hs-578T): 63.5 µM (inactive)
GI50 (T47D): 41.9 µM (inactive)
GI50 (SNB-19): 40.7 µM (inactive)
GI50 (NCI-H226): 69 µM (inactive)
GI50 (Malme-3M): 76.4 µM (inactive)
GI50 (SN12C): 50 µM (inactive)
GI50 (SF-539): 37.2 µM (inactive)
GI50 (HOP-62): 37.5 µM (inactive)
GI50 (NCI-H522): 33.5 µM (inactive)
GI50 (SK-MEL-5): 48.3 µM (inactive)
GI50 (M14): 47.9 µM (inactive)
GI50 (HOP-92): 25.8 µM (inactive)
GI50 (HT-29): 43.6 µM (inactive)
GI50 (U-251): 33.5 µM (inactive)
GI50 (IGROV-1): 38.8 µM (inactive)
GI50 (OVCAR-3): 21.6 µM (inactive)
GI50 (BT-549): 30.5 µM (inactive)
GI50 (NCI/ADR-RES): > 100 µM (inactive)
GI50 (SK-MEL-2): 26.5 µM (inactive)
GI50 (OVCAR-8): 53.5 µM (inactive)
GI50 (UACC-62): 18.4 µM (inactive)
GI50 (786-0): 78.9 µM (inactive)
GI50 (UACC-257): > 100 µM (inactive)
GI50 (HL-60): 36.7 µM (inactive)
GI50 (LOX IMVI): 25.5 µM (inactive)
GI50 (SF-295): 33.4 µM (inactive)
GI50 (HCT-116): 21.4 µM (inactive)
GI50 (SF-268): 50 µM (inactive)
GI50 (DU-145): 57.9 µM (inactive)
GI50 (OVCAR-5): > 100 µM (inactive)
GI50 (ACHN): 46.3 µM (inactive)
GI50 (MDA-N): 36.6 µM (inactive)
GI50 (SK-OV-3): > 100 µM (inactive)
GI50 (MDA-MB-435): 36.4 µM (inactive)
GI50 (NCI-H23): 42.5 µM (inactive)
GI50 (HCT-15): 30.8 µM
GI50 (MDA-MB-231): 71.4 µM (inactive)
GI50 (SR): 29.4 µM (inactive)
GI50 (SNB-75): 78.3 µM (inactive)
GI50 (NCI-H460): 50.1 µM (inactive)
GI50 (RPMI-8226): 31 µM (inactive)
GI50 (PC-3): 61 µM (inactive)
GI50 (RXF 393): 39.7 µM (inactive)
GI50 (OVCAR-4): 41.2 µM (inactive)
GI50 (HCC 2998): 24.2 µM (inactive)
GI50 (MCF7): 21.3 µM (inactive)
